12 compounds from ChEMBL document CHEMBL1201862, “PubChem BioAssay data set” (2004) can be followed below.

What all share (assay): growth of human tumour cells (NCI), 48 h
Assay [1] concerns UO-31.
For assay [2], the system named is M14.
Assay [3] relates to NCI-H460.
Assay [4] relates to SN12C.
In assay [5] the test system is A549.
Assay [6] deals with UACC-62.
Assay [7] has as its system SK-OV-3.
In assay [8] the test system is IGROV-1.
Assay [9] deals with SW-620.
Assay [10] has as its system KM12.
Assay [11] has as its system SK-MEL-5.
The test system of assay [12] is HCC 2998.
Assay [13] deals with OVCAR-8.
Assay [14] deals with SNB-19.
The subject of assay [15] is SF-295.
Assay [16] deals with ACHN.
In assay [17] the test system is RPMI-8226.
The test system of assay [18] is K562.
The test system of assay [19] is SR.

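A five-concentration, 48-hour dose response in 96-well plates underlies each endpoint, interpolated linearly between surrounding concentrations. Abbreviation: GI50, concentration required for 50% inhibition of growth.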 Calls of active or inactive are those of the source. Rule as the data show it: active = GI50 up to about 1.1 µM and inactive = higher.

Consider `CC1=C(C(=O)CC(=O)C(=O)Nc2ccc(C)c(C)c2)Sc2ccccc2N1`, for which the GI50 in [1], in assay [2], in assay [3], in [4], in assay [5] and in assay [6] was > 100 µM (inactive) throughout. The GI50 in assay [7], in [8], in assay [9], in [10], in assay [11] and in [12] was > 100 µM (inactive) in each case. For the same compound, the GI50 in [13], in assay [14], in [15], in assay [16] and in assay [17] was > 100 µM (inactive) throughout.
`CC(=O)/C=C1\CC(=O)Nc2ccccc2N1`: the GI50 in assay [1], in [2], in assay [3], in [4], in assay [5] and in assay [6] was > 100 µM (inactive) throughout. In addition, the GI50 in assay [7], in [8], in assay [18], in assay [9], in assay [10] and in assay [11] was > 100 µM (inactive) throughout. The GI50 in assay [12], in assay [13], in assay [14], in assay [15], in [16] and in assay [17] was > 100 µM (inactive) throughout.
In the case of `NC(CCc1nc(-c2ccccc2)cs1)C(=O)O` (stereo not given), the GI50 in [1] is 75.2 µM (inactive); in [2], > 100 µM (inactive); in assay [3], > 100 µM (inactive); in [4] it was > 100 µM (inactive); in assay [5], > 100 µM (inactive); in assay [6], > 100 µM (inactive). The GI50 in [7], in assay [8], in assay [18], in assay [9], in assay [10] and in [11] was > 100 µM (inactive) throughout. In addition, the GI50 in assay [12], in [13], in [14], in assay [15], in assay [16] and in assay [17] was > 100 µM (inactive) each time.
Consider `Cc1ccc2c(c1)CNc1ccc(C)cc1CN2`, for which the GI50 in assay [1], in [2], in assay [3], in assay [4], in assay [5] and in assay [6] was > 100 µM (inactive) throughout. The GI50 in assay [19], in assay [7], in [8], in assay [18], in assay [9] and in assay [10] was > 100 µM (inactive) in each case. Moreover, the GI50 in assay [11] is 62.4 µM (inactive); in assay [13], > 100 µM (inactive); in [14] it was < 0.01 µM (active); in assay [15] it was > 100 µM (inactive); in assay [16], > 100 µM (inactive); in assay [17] it was > 100 µM (inactive).
For the compound `CCOC(=O)C1(C/C=C(/C)Cl)CCCC1=O` (stereo not given), the GI50 in assay [1], in assay [2], in [3], in assay [4], in assay [5] and in assay [6] was > 100 µM (inactive) throughout. For the same compound, the GI50 is 20.7 µM (inactive) in [19]; > 100 µM (inactive) in [7]; > 100 µM (inactive) in assay [8]; > 100 µM (inactive) in [18]; > 100 µM (inactive) in assay [10]; > 100 µM (inactive) in assay [11]. Moreover, the GI50 in [13] was > 100 µM (inactive); in assay [14] it was > 100 µM (inactive); in [15] it was > 100 µM (inactive); in [16] it was > 100 µM (inactive); in assay [17], 26.9 µM (inactive).
In the case of `CC1CC(C2=CC=CCS2)=Nc2ccccc2S1` (stereo not given), the GI50 in assay [1], in assay [2], in assay [3], in [4], in [5] and in [6] was > 100 µM (inactive) throughout. Moreover, the GI50 in [7], in [8], in assay [18], in [9], in [10] and in assay [11] was > 100 µM (inactive) in each case. The GI50 in assay [12] is 80.4 µM (inactive); in [13], > 100 µM (inactive); in assay [14], 71.3 µM (inactive); in assay [15] it was > 100 µM (inactive); in [16] it was > 100 µM (inactive); in assay [17], 97.5 µM (inactive).
Take `CC(C)(C)OC(=O)N1CCc2[nH][nH]c(=O)c2C1`: the GI50 in assay [1], in assay [2], in assay [3], in assay [4], in assay [5] and in assay [6] was > 100 µM (inactive) in each case. The GI50 in assay [19], in assay [7], in assay [8], in [18], in [9] and in assay [10] was > 100 µM (inactive) each time. Further, the GI50 in assay [13], in [14], in assay [15] and in assay [17] was > 100 µM (inactive) each time.
With `CN(C)c1ccc(C=C2C(=O)N(c3ccccc3)N(c3ccccc3)C2=O)cc1`, the GI50 is > 100 µM (inactive) in [1]; > 100 µM (inactive) in [2]; > 100 µM (inactive) in [4]; 78.9 µM (inactive) in [5]; > 100 µM (inactive) in assay [6]; > 100 µM (inactive) in assay [19]. In addition, the GI50 in [7] is > 100 µM (inactive); in assay [8], > 100 µM (inactive); in [18], 61.4 µM (inactive); in assay [9] it was > 100 µM (inactive); in assay [10] it was 74.8 µM (inactive); in assay [11], > 100 µM (inactive). Also, the GI50 in assay [13] was 56.5 µM (inactive); in [14], 74.3 µM (inactive); in [15] it was 63.4 µM (inactive); in assay [16], 81.8 µM (inactive); in assay [17], 69 µM (inactive).
For the compound `O=C1/C(=C/c2cc(O)c(O)c(O)c2)Oc2cc(O)cc(OC3OC(CO)C(O)C(O)C3O)c21` (stereo not given), the GI50 in assay [1] was 32.4 µM (inactive); in assay [2] it was 21.5 µM (inactive); in [3], 13.9 µM (inactive); in assay [4], 17.3 µM (inactive); in [5] it was 32.4 µM (inactive); in assay [6], 16 µM (inactive). The GI50 in assay [7] is 46.1 µM (inactive); in [8], 36.2 µM (inactive); in [18], 16.9 µM (inactive); in [9] it was 24.1 µM (inactive); in [10] it was 29.6 µM (inactive); in assay [11], 13.3 µM (inactive). The GI50 in assay [12] was 39.2 µM (inactive); in assay [13] it was 18.2 µM (inactive); in [14], > 100 µM (inactive); in [15], 16.5 µM (inactive); in [16], 11.6 µM (inactive); in [17], 20.2 µM (inactive).
Consider `O=[PH](O)c1cc2c3ccccc3ccc2c2ccccc12`, for which the GI50 in assay [2], in assay [3], in assay [4], in assay [5], in assay [6] and in assay [7] was > 100 µM (inactive) each time. Also, the GI50 in assay [8], in assay [18], in [9], in assay [10], in [11] and in assay [12] was > 100 µM (inactive) in each case. Moreover, the GI50 in assay [13], in assay [14], in assay [15] and in assay [17] was > 100 µM (inactive) in each case.
For the compound `C=CCc1cc(-c2cc(CC=C)c(O)c(CNCCCl)c2)cc(CNCCCl)c1O`, the GI50 in [1] was 14.5 µM (inactive); in assay [2], 18 µM (inactive); in assay [3] it was 16.8 µM (inactive); in assay [4] it was 19.8 µM (inactive); in assay [5], 24.3 µM (inactive); in [6], 14.6 µM (inactive). For the same compound, the GI50 in assay [8] was 23.6 µM (inactive); in [18], 17.8 µM (inactive); in assay [9] it was 20.8 µM (inactive); in assay [10], 17.3 µM (inactive); in assay [11], 15.3 µM (inactive); in assay [12], 17.3 µM (inactive). The GI50 is 19.9 µM (inactive) in assay [13]; 30 µM (inactive) in assay [14]; 17.5 µM (inactive) in assay [15]; 16.5 µM (inactive) in assay [16]; 21.4 µM (inactive) in assay [17].
On to `CCCc1cc(OC(=O)c2c(O)cc(OC)cc2CCC)cc(O)c1C(=O)O`, for which the GI50 in [1] was 13 µM (inactive); in assay [2], 28.4 µM (inactive); in assay [3] it was 23.9 µM (inactive); in [5], 30.2 µM (inactive); in assay [6], 35.7 µM (inactive); in assay [7], 22.4 µM (inactive). Moreover, the GI50 in [8] was 47.9 µM (inactive); in [18] it was 32.5 µM (inactive); in [9] it was 37.9 µM (inactive); in [10], 28.2 µM (inactive); in [12] it was 25.2 µM (inactive); in assay [13] it was 37.5 µM (inactive). Further, the GI50 in assay [14] is 25.1 µM (inactive); in assay [16], 27.9 µM (inactive); in assay [17], 24.2 µM (inactive).
